Measurements reported in article PMC7934800, “Amino- and polyaminophthalazin-1(2H)-ones: synthesis, coordination properties, and biological activity” (Beilstein Journal of Organic Chemistry, 2021).

What was measured:
[1] = system: HT-29 (human colon adenocarcinoma cell line); assay: MTT cytotoxicity assay, HT-29; assay type: cell-based; settings: 72 h of cell treatment, HT-29 cells
Text: (§1) We used the MTT assay to evaluate compounds 5c, 5d, 5f, 5g, 6b, and 6d for their potential activity on cytotoxicity, proliferation and growth of HT-29 (human colon adenocarcinoma cell line), PC-3 (human prostate cancer cell line) and L-929 cells (mouse fibroblast cell line).
(§2) 2.1 Materials and methods:
(§3) Trypsin-EDTA and all media (RPMI 1640, DMEM/F-12K and IMDM) were purchased from Biowest (CytoGen, Poland). Buffered saline (PBS), penicillin-streptomycin solution stabilized, fetal bovine serum (FBS), amino acids solution (MEM), β-mercaptoethanol, dimethyl sulfoxide (DMSO) and MTT 3-(4,5-dimethylthiazol-2-yl)- […] bromide were supplied by Sigma Aldrich Chemical Co (USA).
(§4) All tested cell lines were provided by American Type Culture Collection (ATCC, […]
(§5) Rockville, Manassas,VA, USA). […]
The HT-29 cells were cultured in RPMI-1640 medium containing 2 mM L-glutamine, 10 mM HEPES, 1 mM sodium pyruvate, 4500 mg/L glucose and 1500 mg/L sodium bicarbonate, supplemented with 10% (v/v) fetal bovine serum (FBS), 1% (v/v) penicillin/streptomycin and 1% (v/v) MEM amino acid’s solution. […]
(§6) Cells were maintained in a humidified incubator at 37 °C in a 5% CO2 atmosphere and were regularly screened for mycoplasma contamination. Exponential growth of the cells was controlled by their routine passaging at 90% confluence three times a week using 0.025% trypsin/EDTA.
(§7) 2.3 Cytotoxicity analysis – MTT assay:
(§8) The viability of the cells is associated with their mitochondrial integrity and capacity.
(§9) For that reason, in the MTT microplate assay with 3-(4,5-dimethylthiazol-2-yl)-[…] bromide, first described by Mosmann [ 5], only viable cells with intact metabolism have the ability to incorporate the yellow, water-soluble tetrazolium […]
(§10) dehydrogenase to the violet-blue formazan compound. After dissolving the formazan crystals in an organic solvent, e.g., dimethyl sulfoxide (DMSO), the absorbance of the formazan solution can be measured spectrophotometrically at 570 nm.
(§11) In our research, the MTT assay was used to describe the effect of the tested compounds on cytotoxicity, proliferation and growth of HT-29, PC-3 and L-929 cells.
(§12) Before treatments with the tested compounds the suspension of 8×10^3 cells in 100 µ L medium was transferred to each well of a standard 96-well microplate. Subsequently, the plates were incubated for 24 h (5% CO 2; 37 °C) to ensure cell growth.
(§13) Afterwards, the examined substances at 10 different concentrations were added in 2– […]
(§14) volume of 100 µL medium per well. These concentrations were obtained diluting the compounds first in DMSO and then in medium, which were subsequently used to treat cells cultures in a final DMSO concentration between 0.1 and 1% per well [6] (Da Violante et. al. 2002). As control, the first and last columns were filled only with medium […]
(§15) without studied compounds. Furthermore, blanks (wells without cells) were also […]
(§16) The plates were then incubated for 72 h (37 °C; 5% CO2). Subsequently, 25 µL of fresh MTT solution (5 mg/mL in PBS) was added to each well and the microplates were incubated in a humidified atmosphere for additional 3 h (37 °C; 5% CO2). After the incubation, the MTT solution was replaced by 100 µL of DMSO in order to dissolve formazan complexes and absorbance was immediately measured (microplate reader PowerWaveXS BioTek Instruments, Inc., USA) at 570 nm.
(§17) The IC50 value (concentration of an inhibitor which reduces the absorbance level in the treated cells in comparison to untreated cells by half) representing the cytotoxicity of a substance was evaluated for each studied compound using the GraphPad Prism 7.0 software system (GraphPad Prism Software Inc., USA). To determinate statistical significance between the results one-way variance analysis (ANOVA) was used. The samples homogeneity was tested using Bartlett’s test, followed by Dunnett’s test. All data are presented as the mean of the replicates from three independent experiments, with a significance level of p ≤ 0.05.

[2] = system: PC-3 (human prostate cancer cell line); assay: MTT cytotoxicity assay, PC-3; assay type: cell-based; settings: 72 h of cell treatment, PC-3 cells
Text: as §1, §2, §3, §4, §5, §6, §7, §8, §9, §10, §11, §12, §13, §14, §15, §16, §17

[3] = system: L-929 cells (mouse fibroblast cell line); assay: MTT cytotoxicity assay, L-929; assay type: cell-based; settings: L929, 72 h of cell treatment, L-929 control (non-cancer) cells
Text: as §1, §2, §3, §4, §5
In addition, the mouse fibroblast cell line
(L-929; ATCC® CCL-1™) was used as a model for non-cancer cells. […]
The L-929 was cultivated in IMDM Medium with 4 mM L-glutamine, 4500 mg/L glucose, and 1500 mg/L sodium bicarbonate supplemented with 10% (v/v) fetal bovine serum (FBS), 1% (v/v) penicillin/streptomycin and 1% (v/v) β-mercaptoethanol.
as §6, §7, §8, §9, §10, §11, §12, §13, §14, §15, §16
as §17, with “with a significance level of p ≤ 0.05.” left out

| melting point [°C] | SMILES | IC50 [1] [µM] | IC50 [2] [µM] | IC50 [3] [µM] |
| --- | --- | --- | --- | --- |
| 135 to 136 | Cn1nc(N2CCOCC2)c2ccccc2c1=O [5a] | – | – | – |
| 132 to 134 | Cn1nc(N2CCSCC2)c2ccccc2c1=O [5b] | – | – | – |
| 92 to 93 | Cn1nc(N2CCCCC2)c2ccccc2c1=O [5c] | 36.7 | 46 | 27.4 |
| – | Cn1nc(NC2CCCCC2)c2ccccc2c1=O [5d] | 29.8 | 20.1 | 20.4 |
| 86 to 87 | CCCCCCNc1nn(C(C)C)c(=O)c2ccccc12 [5e] | – | – | – |
| 121 to 123 | CC(C)n1nc(NCCc2cccs2)c2ccccc2c1=O [5f] | 27.4 | 27.3 | 20.1 |
| 216 to 218 | Cn1nc(NCc2ccc(C(F)(F)F)cc2)c2ccccc2c1=O [5g] | 31.4 | 22.4 | 21.3 |
| 108 to 110 | COc1ccc(CNc2nn(C(C)C)c(=O)c3ccccc23)cc1 [5h] | – | – | – |
| 160 to 163 | Cn1nc(N(c2ccccc2)c2ccccn2)c2ccccc2c1=O [5i] | – | – | – |
| 84 to 86 | CCN(CC)CCCC(C)Nc1nn(C)c(=O)c2ccccc12 (centres unmarked) [6b] | 51.6 | 66.3 | 92.9 |
| 153 to 155 | CNCCNc1nn(C)c(=O)c2ccccc12 [6d] | 75.6 | 83 | 52.7 |
| 58 to 60 | CCN(CC)CCCC(C)Nc1nn(CCN(C)C)c(=O)c2ccccc12 (centres unmarked) [6e] | – | – | – |
